Source: publication PMC7194175 (Nature plants, 2019)

Experiments:
[1] = target: T1, CYP72A9 (Arabidopsis thaliana, UniProt F4IW82); assay: feeding of recombinant WAT11 yeast culture, GC-MS of products; type: cell-based; details: AtCPR1 co-expressed, 30 °C, 16 h
T1 sequence (F4IW82 1-508): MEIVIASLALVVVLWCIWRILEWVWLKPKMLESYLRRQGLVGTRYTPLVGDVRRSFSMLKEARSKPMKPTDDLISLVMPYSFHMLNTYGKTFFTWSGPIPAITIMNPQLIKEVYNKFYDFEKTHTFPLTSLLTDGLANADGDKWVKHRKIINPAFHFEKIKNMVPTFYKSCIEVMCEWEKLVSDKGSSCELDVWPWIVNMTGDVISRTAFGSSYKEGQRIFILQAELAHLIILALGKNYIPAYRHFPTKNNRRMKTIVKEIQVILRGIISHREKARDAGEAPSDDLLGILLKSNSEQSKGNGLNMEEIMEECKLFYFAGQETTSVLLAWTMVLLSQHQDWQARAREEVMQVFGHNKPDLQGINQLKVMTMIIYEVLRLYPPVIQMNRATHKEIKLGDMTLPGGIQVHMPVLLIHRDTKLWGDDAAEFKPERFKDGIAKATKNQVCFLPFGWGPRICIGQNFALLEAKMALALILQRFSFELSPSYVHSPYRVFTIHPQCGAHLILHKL

[2] = target: T2, CYP72A15 (Arabidopsis thaliana, UniProt Q9LUC5); assay: as above; type: cell-based; details: AtCPR1 co-expressed; 30 °C, 16 h
T2 sequence (Q9LUC5 1-512): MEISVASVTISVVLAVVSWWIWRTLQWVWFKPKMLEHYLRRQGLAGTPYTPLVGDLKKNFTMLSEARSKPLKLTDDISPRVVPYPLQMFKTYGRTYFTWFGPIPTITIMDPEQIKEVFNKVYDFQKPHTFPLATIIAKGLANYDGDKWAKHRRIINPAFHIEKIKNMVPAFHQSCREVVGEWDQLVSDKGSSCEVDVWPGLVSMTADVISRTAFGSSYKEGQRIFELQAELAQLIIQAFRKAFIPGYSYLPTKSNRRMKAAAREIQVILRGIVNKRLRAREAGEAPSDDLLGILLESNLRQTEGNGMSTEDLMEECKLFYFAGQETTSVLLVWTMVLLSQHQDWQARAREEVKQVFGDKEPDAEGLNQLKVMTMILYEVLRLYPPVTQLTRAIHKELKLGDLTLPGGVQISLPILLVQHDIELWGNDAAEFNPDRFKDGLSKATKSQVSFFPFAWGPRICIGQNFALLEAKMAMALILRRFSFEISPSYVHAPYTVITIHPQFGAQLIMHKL

SMILES | feeding of recombinant WAT11 yeast culture, GC-MS of products ([1]; 13-hydroxylation to GA1) | feeding of recombinant WAT11 yeast culture, GC-MS of products [2] | feeding of recombinant WAT11 yeast culture, GC-MS of products ([1]; 13-hydroxylation to GA53)
C=C1C[C@]23C[C@H]1CC[C@H]2[C@@]12CC[C@H](O)[C@@](C)(C(=O)O1)[C@H]2[C@@H]3C(=O)O [GA4] | hydroxylating GA4, GA9, and GA12 at C13 position to produce GA1, GA20, and GA53 |  | 
C=C1C[C@]23C[C@H]1CC[C@H]2[C@]1(C)CCC[C@@](C)(C(=O)O)[C@H]1[C@@H]3C(=O)O [GA12] |  | utilized ent-kaurenoic acid, GA12 and GA9 as substrates rather than GA4 | hydroxylating GA4, GA9, and GA12 at C13 position to produce GA1, GA20, and GA53
